One assay concerns the target T1, glucagon receptor (GCGR) (Homo sapiens, UniProt P47871).
T1 construct: expressed in transfected cells; host or cells: CHO-K1
Description: Glucagon cAMP inhibition assay (Cisbio cAMP Dynamic 2 HTRF). Type of assay: cell-based. As to conditions: GCGR overexpressed CHO-K1 cells or human primary hepatocytes (not specified); glucagon at EC50. As for the experimental part: Glucagon eAMP Inhibition Assay
Downstream secondary messenger eAMP induced by glucagon was detected by Cisbio cAMP Dynamic 2 kit. Testing compounds were each prepared as a dimethyl sulfoxide (DMSO) solution at the concentration of 10 mM. To evaluate the potency of compounds in inhibiting the cAMP production, glucagon receptor (GCGR) overexpressed CHO-K1 cells or human primary hepatocytes were treated with compounds with a serial dilution. The cells were re-suspended in Hank's Balanced Salt solution (HBSS) contained 0.1% (w/v) bovine serum albumin and 800 nM 3-isobutyl-1-methylxanthine (IBMX) and seeded into low volume, 384 wells white plate. The diluted compounds were then added into the plate for 30 minutes pre-incubation where the final DMSO concentration was 1%. The cells were stimulated with glucagon at the concentration equaled to EC50 (an indicium of the concentration of a drag that gives half-maximal response) for 30 minutes at room temperature. After incubation, lysis buffer contain cAMP antibody and fluorescence acceptor were added into each well for additional 60 minutes incubation. Results were recorded by Molecular Devices SpectraMax Paradigm with the HTRF Detection Cartridges and the IC50 value of each compound in inhibiting the cAMP production was calculated with non-linear regression based on the amount of cAMP production.
Background: In TR-FRET formats the signal depends on donor and acceptor labels being close together.

Another assay concerns the target GCGR (Homo sapiens, UniProt P47871). Description: I125-glucagon binding assay (competition, GCGR membrane fractions). Set-up: expressed in transfected cells; host or cells: CHO-K1. Conditions: competition with I125-glucagon 0.0625 nM; membrane fractions from GCGR overexpressed CHO-K1 cells. As for the experimental part: I^125-Glucagon Binding Assay
The binding affinity of each compound was evaluated by a competition assay with I^125-glucagon. GCGR membrane fractions were obtained from GCGR overexpressed CHO-K1 cells as a stock of 1 mg/ml concentration. To evaluate the IC50 of compounds binding to GCGR, GCGR membrane fractions were treated with compounds with a serial dilution. The membrane fractions were diluted to 7.5 microgram per well in 70 microliter assay buffer contained 50 mM Tris pH 7.4 and 0.5% (w/v) bovine serum albumin and added into 96 wells plate. The membrane fractions were then mixed with 10 microliter diluted compounds. After 5 minutes pre-incubation, 20 microliter I^125 labeled glucagon (Perkin Elmer) was added into each well at the final concentration of 0.0625 nM. The assay mixtures were incubated at 25° C. for 30 minutes and then transferred onto the Millipore Multiscreen GF/B Plate coated with 0.5% (w/v) Polyethyleneimine. The filter plate was washed with wash buffer contained 50 mM Tris pH 7.4 for 2 times, 300 microliter each time. The residual isotope was detected by Hidex CHAMELEON V micro-beta counter and the IC50 value of each compound binding to GCGR was calculated with non-linear regression.

T1 sequence (P47871 26-477, species assumed): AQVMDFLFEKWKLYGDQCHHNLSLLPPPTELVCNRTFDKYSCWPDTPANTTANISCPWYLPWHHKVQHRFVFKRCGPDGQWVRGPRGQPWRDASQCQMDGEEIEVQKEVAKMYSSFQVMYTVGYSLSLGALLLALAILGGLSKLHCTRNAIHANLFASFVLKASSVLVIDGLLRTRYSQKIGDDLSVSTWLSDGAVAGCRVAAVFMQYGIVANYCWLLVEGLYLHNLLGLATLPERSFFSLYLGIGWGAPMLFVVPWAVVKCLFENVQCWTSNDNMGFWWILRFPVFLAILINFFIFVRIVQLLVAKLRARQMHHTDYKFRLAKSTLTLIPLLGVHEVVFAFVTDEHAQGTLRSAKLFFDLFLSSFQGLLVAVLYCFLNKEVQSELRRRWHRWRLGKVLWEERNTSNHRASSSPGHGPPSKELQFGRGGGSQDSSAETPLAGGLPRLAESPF
GCGR, sequence (P47871 26-477, species assumed): as above

With `CC(C)[C@H](Nc1ccc(C(=O)NCCC(=O)O)cc1)c1ccc(-c2nnc(C(F)(F)F)o2)cc1` (racemic) [Compound 1-57, (RS)-3-(4-((2-methyl-1-(4-(5-(trifluoromethyl)-1,3,4-oxadiazol-2-yl)phenyl)propyl)amino)benzamido)propanoic acid], the 50% inhibitory concentration (IC50) is above 30000 nM at glucagon receptor (GCGR) and 2500 nM on GCGR.
For the molecule `CCOC(=O)CCNC(=O)c1ccc(NC(c2ccc(-c3nnc(C(C)(C)C)o3)cc2)C(C)CC)cc1` (stereo not drawn) [Compound 1-21, Ethyl 3-(4-((1-(4-(5-(tert-butyl)-1,3,4-oxadiazol-2-yl)phenyl)-2-methylbutyl)amino)benzamido)propanoate], the IC50 against glucagon receptor (GCGR) is 126 nM; on GCGR, 3310 nM.
For `CCCC[C@H](Nc1ccc(C(=O)NCCC(=O)O)cc1)c1ccc(-c2nnc(C(F)(F)F)o2)cc1` [Compound 1-53, (S)-3-(4-((1-(4-(5-(trifluoromethyl)-1,3,4-oxadiazol-2-yl)phenyl)pentyl)amino)benzamido)propanoic acid], the IC50 at glucagon receptor (GCGR) worked out at 1870 nM; on GCGR it was 351 nM.
The corresponding values for `O=C(O)CCNC(=O)c1ccc(N[C@H](c2ccc(-c3nc4ccccc4o3)cc2)C2CCCC2)cc1` [Compound 4-24, (S)-3-(4-(((4-(benzo[d]oxazol-2-yl)phenyl)(cyclopentyl)methyl)amino)benzamido)propanoic acid] are 862 nM and 95 nM.
Consider `CCOC(=O)CCNC(=O)c1ccc(N[C@@H](CC(C)C)c2ccc(-c3nc4ccccc4o3)cc2)cc1` [Compound 4-17, ethyl (S)-3-(4-((1-(4-(benzo[d]oxazol-2-yl)phenyl)-3-methylbutyl)amino)benzamido)propanoate], for which the concentration for half-maximal inhibition (IC50) was determined as 96 nM on glucagon receptor (GCGR) and 745 nM at GCGR.
The like results for `CC(C)[C@H](Nc1ccc(C(=O)NCCC(=O)O)cc1)c1ccc(-c2noc(-c3ccccc3)n2)cc1` [Compound 2-28, (S)-3-(4-((2-methyl-1-(4-(5-phenyl-1,2,4-oxadiazol-3-yl)phenyl)propyl)amino)benzamido)propanoic acid] were, in that order, 295 nM and 29 nM.
On to `O=C(O)CCNC(=O)c1ccc(NC(c2ccc(-c3noc(-c4ccccc4)n3)cc2)C2CCCCC2)cc1` (stereo not drawn) [Compound 2-17, 3-(4-((cyclohexyl(4-(5-phenyl-1,2,4-oxadiazol-3-yl)phenyl)methyl)amino)benzamido)propanoic acid], for which the 50% inhibitory concentration (IC50) amounted to 511 nM against glucagon receptor (GCGR) and 54 nM at GCGR.
In the case of `COc1ccc(-c2nnc(-c3ccc(C(Nc4ccc(C(=O)NCCC(=O)O)cc4)C(C)C)cc3)o2)cc1` (stereo not drawn) [Compound 1-26, 3-(4-((1-(4-(5-(4-methoxyphenyl)-1,3,4-oxadiazol-2-yl)phenyl)-2-methylpropyl)amino)benzamido)propanoic acid], the 50% inhibitory concentration (IC50) on glucagon receptor (GCGR) stood at 4380 nM; on GCGR, 198 nM.
Consider `CCOC(=O)CCNC(=O)c1ccc(NC(c2ccc(-c3nnc(-c4ccc(OC)cc4)o3)cc2)C(C)C)cc1` (stereo not drawn) [Compound 1-25, ethyl 3-(4-((l-(4-(5-(4-methoxyphenyl)-1,3,4-oxadiazol-2-yl)phenyl)-2-methylpropyl)amino)benzamido)propanoate], for which the IC50 was 284 nM on glucagon receptor (GCGR) and above 30000 nM at GCGR.
The corresponding values for `CCCC[C@@H](Nc1ccc(C(=O)NCCC(=O)O)cc1)c1ccc(-c2noc(-c3ccccc3)n2)cc1` [Compound 2-36, (R)-3-(4-((1-(4-(5-phenyl-1,2,4-oxadiazol-3-yl)phenyl)pentyl)amino)benzamido)propanoic acid] are 338 nM and 199 nM.
Take `CCC(C)[C@@H](Nc1ccc(C(=O)NCCC(=O)O)cc1)c1ccc(-c2nnc(-c3ccccc3)o2)cc1` (stereo partly drawn) [Compound 1-50, 3-(4-(((1R)-2-methyl-1-(4-(5-phenyl-2,3,4-oxadiazol-2-yl)phenyl)butyl)amino)benzamido)propanoic acid]: the IC50 came to 2730 nM against glucagon receptor (GCGR) and 82 nM on GCGR.
The like results for `CCCC[C@H](Nc1ccc(C(=O)NCCC(=O)OCC)cc1)c1ccc(-c2noc(-c3ccccc3)n2)cc1` [Compound 2-33, ethyl (S)-3-(4-((1-(4-(5-phenyl-1,2,4-oxadiazol-3-yl)phenyl)pentyl)amino)benzamido)propanoate] were, in that order, 283 nM and 1040 nM.
`CCOC(=O)CCNC(=O)c1ccc(N[C@@H](CC(C)C)c2ccc(-c3noc(-c4ccccc4)n3)cc2)cc1` [Compound 2-41, ethyl (S)-3-(4-((3-methyl-1-(4-(5-phenyl-1,2,4-oxadiazol-3-yl)phenyl)butyl)amino)benzamido)propanoate]: the results for the half-inhibitory concentration (IC50) at glucagon receptor (GCGR) and at GCGR were 71.1 nM and 389 nM, respectively.
The like results for `CCCC[C@H](Nc1ccc(C(=O)NCCC(=O)O)cc1)c1ccc(-c2nc3ccccc3o2)cc1` [Compound 4-16, (S)-3-(4-((1-(4-(benzo[d]oxazol-2-yl)phenyl)pentyl)amino)benzamido)propanoic acid] were, in that order, 785 nM and 36 nM.
As to `CCOC(=O)CCNC(=O)c1ccc(N[C@H](c2ccc(-c3nc4ccccc4s3)cc2)C(C)C)nc1` [Compound 4-27, ethyl (S)-3-(6-((1-(4-(benzo[d]thiazol-2-yl)phenyl)-2-methylpropyl)amino)nicotinamido)propanoate], the IC50 was 42.3 nM on glucagon receptor (GCGR) and 127 nM on GCGR.
In the case of `CC(C)[C@@H](Nc1ccc(C(=O)NCCC(=O)O)cc1)c1ccc(-c2noc(-c3ccccc3)n2)cc1` [Compound 2-23, (R)-3-(4-((2-methyl-1-(4-(5-phenyl-1,2,4-oxadiazol-3-yl)phenyl)propyl)amino)benzamido)propanoic acid], the half-inhibitory concentration (IC50) came out at 1000 nM on glucagon receptor (GCGR) and 537 nM at GCGR.
Consider `CCOC(=O)CCNC(=O)c1ccc(N[C@H](c2ccc(-c3nc4ccccc4o3)cc2)C(C)CC)cc1` (stereo partly drawn) [Compound 4-19, Ethyl 3-(4-(((1S)-1-(4-(benzo[d]oxazol-2-yl)phenyl)-2-methylbutyl)amino)benzamido)propanoate], for which the IC50 against glucagon receptor (GCGR) is 52 nM; on GCGR it was 446 nM.
Consider `CCOC(=O)CCNC(=O)c1ccc([C@H](Nc2ccc(-c3nnc(-c4ccccc4)o3)cc2)C(C)C)cc1` [Compound 3-13, (R)-ethyl 3-(4-(2-methyl-1-(4-(5-phenyl-1,3,4-oxadiazol-2-yl)phenylamino)propyl)benzamido)propanoate], for which the figures for the IC50 on glucagon receptor (GCGR) and at GCGR were 207 nM and above 30000 nM, respectively.
As for `CCCC[C@H](Nc1ccc(C(=O)NCCC(=O)OCC)cc1)c1ccc(-c2nnc(C(F)(F)F)o2)cc1` [Compound 1-51, ethyl (S)-3-(4-((1-(4-(5-(trifluoromethyl)-1,3,4-oxadiazol-2-yl)phenyl)pentyl)amino)benzamido)propanoate], the results for the IC50 on glucagon receptor (GCGR) and on GCGR were 33.9 nM and 6170 nM, respectively.
In the case of `CCOC(=O)CCNC(=O)c1ccc(N[C@H](c2ccc(-c3nc4ccccc4o3)cc2)C(C)C)nc1` [Compound 4-29, ethyl (S)-3-(6-((1-(4-(benzo[d]oxazol-2-methylpropyl)amino)nicotinamido propanoate], the results for the half-inhibitory concentration (IC50) against glucagon receptor (GCGR) and on GCGR were 53.4 nM and 285 nM, respectively.
With `CCOC(=O)CCNC(=O)c1ccc(N[C@H](CC(C)C)c2ccc(-c3noc(-c4ccccc4)n3)cc2)cc1` [Compound 2-42, ethyl (R)-3-(4-((3-methyl-1-(4-(5-phenyl-1,2,4-oxadiazol-3-yl)phenyl)butyl)amino)benzamido)propanoate], the results for the IC50 at glucagon receptor (GCGR) and on GCGR were 248 nM and 42 nM, respectively.
`CCCCC(Nc1ccc(C(=O)NCCC(=O)OCC)cc1)c1ccc(-c2nnc(C(F)(F)F)o2)cc1` (stereo not drawn) [Compound 1-33, ethyl 3-(4-((1-(4-(5-(trifluoromethyl)-1,3,4-oxadiazol-2-yl)phenyl)pentyl)amino)benzamido)propanoate]: the IC50 on glucagon receptor (GCGR) was 142 nM; at GCGR, above 30000 nM.
As for `CCC(C)[C@H](Nc1ccc(C(=O)NCCC(=O)O)cc1)c1ccc(-c2nc3ccccc3o2)cc1` (stereo partly drawn) [Compound 4-20, 3-(4-(((1S)-1-(4-(benzo[d]oxazol-2-yl)phenyl)-2-methylbutyl)amino)benzamido)propanoic acid], the concentration for half-maximal inhibition (IC50) is 984 nM on glucagon receptor (GCGR) and 17 nM on GCGR.
As for `CCOC(=O)CCNC(=O)c1ccc([C@@H](Nc2ccc(-c3nnc(-c4ccccc4)o3)cc2)C(C)C)cc1` [Compound 3-12, (S)-ethyl 3-(4-(2-methyl-1-(4-(5-phenyl-1,3,4-oxadiazol-2-yl)phenylamino)propyl)benzamido)propanoate], the results for the half-inhibitory concentration (IC50) on glucagon receptor (GCGR) and on GCGR were 277 nM and above 30000 nM, respectively.

As usually defined, the IC50 is the concentration needed to halve the response being measured. A higher IC50 goes with lower potency.
